Reference: ChEMBL document CHEMBL4393714, “Multi-targeting protein-protein interaction inhibitors: Evolution of macrocyclic ligands with embedded carbohydrates (MECs) to improve selectivity” (Eur J Med Chem, 2019)

Experiments:
Rattus norvegicus = species: Rattus norvegicus; assay: Displacement of [3H] batrachotoxinin from rat sodium channel site 2 at 10 uM measured after 60 mins by scintillation counter method relative to control
[1] = biological target: 5-hydroxytryptamine receptor 6 (Homo sapiens) (UniProt P50406); assay: Displacement of [3H]LSD from human recombinant 5-HT6 receptor at 10 uM measured after 120 mins by scintillation counter method relative to control
[2] = biological target: Neuromedin-K receptor (Homo sapiens) (UniProt P29371); assay: Displacement of [3H] HSR 142801 from human recombinant neurokinin beta receptor at 10 uM measured after 120 mins by scintillation counter method
Chain of Neuromedin-K receptor (Homo sapiens) (P29371 whole entry): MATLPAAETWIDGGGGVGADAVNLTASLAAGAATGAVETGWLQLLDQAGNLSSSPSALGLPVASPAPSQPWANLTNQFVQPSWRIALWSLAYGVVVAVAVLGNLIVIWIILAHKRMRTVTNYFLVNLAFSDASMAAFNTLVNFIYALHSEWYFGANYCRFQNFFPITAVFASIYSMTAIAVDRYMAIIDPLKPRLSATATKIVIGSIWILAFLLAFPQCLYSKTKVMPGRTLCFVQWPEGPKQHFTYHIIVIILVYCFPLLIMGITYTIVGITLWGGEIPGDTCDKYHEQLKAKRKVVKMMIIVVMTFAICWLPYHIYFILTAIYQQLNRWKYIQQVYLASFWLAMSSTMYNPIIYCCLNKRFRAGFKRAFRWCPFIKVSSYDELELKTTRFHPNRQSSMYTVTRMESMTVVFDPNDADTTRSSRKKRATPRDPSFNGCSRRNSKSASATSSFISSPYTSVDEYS

[3] = biological target: Somatostatin receptor type 1 (Homo sapiens) (UniProt P30872); assay: Displacement of [125I] tyr11-somatostatin-14 from human recombinant somatostatin receptor type1 at 10 uM measured after 180 mins by scintillation counter method relative to control
Chain of Somatostatin receptor type 1 (Homo sapiens) (P30872 whole entry): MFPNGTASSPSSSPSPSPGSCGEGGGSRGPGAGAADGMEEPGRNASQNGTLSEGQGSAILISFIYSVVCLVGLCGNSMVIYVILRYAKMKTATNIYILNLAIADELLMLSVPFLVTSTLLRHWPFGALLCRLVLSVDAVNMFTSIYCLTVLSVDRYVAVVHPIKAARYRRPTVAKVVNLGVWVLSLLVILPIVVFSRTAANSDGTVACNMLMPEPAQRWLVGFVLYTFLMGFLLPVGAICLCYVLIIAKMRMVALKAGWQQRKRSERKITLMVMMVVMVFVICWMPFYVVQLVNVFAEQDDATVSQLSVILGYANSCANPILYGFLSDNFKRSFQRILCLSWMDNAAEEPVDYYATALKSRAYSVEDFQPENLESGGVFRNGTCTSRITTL

[4] = biological target: 5-hydroxytryptamine receptor 2B (Homo sapiens, UniProt P41595); assay: Antagonist activity at human recombinant 5-HT2B receptor in CHOK1 cells measured after 30 mins by HTRF assay; type: cell-based
Chain of 5-hydroxytryptamine receptor 2B (P41595 whole entry): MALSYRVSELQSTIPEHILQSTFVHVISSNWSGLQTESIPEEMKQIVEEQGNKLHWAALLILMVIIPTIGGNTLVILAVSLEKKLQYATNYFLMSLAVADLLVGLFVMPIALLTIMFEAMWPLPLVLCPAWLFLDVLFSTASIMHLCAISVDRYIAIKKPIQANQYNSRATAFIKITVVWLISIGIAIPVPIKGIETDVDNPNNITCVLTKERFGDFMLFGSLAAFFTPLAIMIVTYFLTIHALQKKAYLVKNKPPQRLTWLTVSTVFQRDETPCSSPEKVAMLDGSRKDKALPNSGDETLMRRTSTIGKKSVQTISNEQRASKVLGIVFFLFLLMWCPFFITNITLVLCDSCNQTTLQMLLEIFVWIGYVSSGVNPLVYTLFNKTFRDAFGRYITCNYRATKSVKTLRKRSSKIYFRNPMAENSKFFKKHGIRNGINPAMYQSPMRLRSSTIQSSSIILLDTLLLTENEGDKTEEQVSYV

[5] = biological target: Cav1.2 (L-type calcium channel subunit alpha-1C) (Rattus norvegicus, UniProt P22002); assay: Displacement of [3H] D888 from rat Cav1.2 (L-type) at 10 uM measured after 120 mins by scintillation counter method relative to control; conditions: probe [3H] D888
[6] = biological target: Adrenergic receptor alpha-1 (Rattus norvegicus) (UniProt P15823+P23944+P43140); assay: Displacement of [3H] prazosin from rat alpha1 adreno receptor at 10 uM measured after 60 mins by scintillation counter method relative to control; type: protein assay
[7] = biological target: Vasoactive intestinal polypeptide receptor 1 (Homo sapiens) (UniProt P32241); assay: Displacement of [125I] VIP from human recombinant VPAC1 receptor at 10 uM measured after 60 mins by scintillation counter method relative to control
[8] = biological target: Sodium-dependent noradrenaline transporter (Homo sapiens) (UniProt P23975); assay: Displacement of [3H] nisoxetine from human recombinant norepinephrine transporter at 10 uM measured after 120 mins by scintillation counter method relative to control
Chain of Sodium-dependent noradrenaline transporter (Homo sapiens) (P23975 whole entry): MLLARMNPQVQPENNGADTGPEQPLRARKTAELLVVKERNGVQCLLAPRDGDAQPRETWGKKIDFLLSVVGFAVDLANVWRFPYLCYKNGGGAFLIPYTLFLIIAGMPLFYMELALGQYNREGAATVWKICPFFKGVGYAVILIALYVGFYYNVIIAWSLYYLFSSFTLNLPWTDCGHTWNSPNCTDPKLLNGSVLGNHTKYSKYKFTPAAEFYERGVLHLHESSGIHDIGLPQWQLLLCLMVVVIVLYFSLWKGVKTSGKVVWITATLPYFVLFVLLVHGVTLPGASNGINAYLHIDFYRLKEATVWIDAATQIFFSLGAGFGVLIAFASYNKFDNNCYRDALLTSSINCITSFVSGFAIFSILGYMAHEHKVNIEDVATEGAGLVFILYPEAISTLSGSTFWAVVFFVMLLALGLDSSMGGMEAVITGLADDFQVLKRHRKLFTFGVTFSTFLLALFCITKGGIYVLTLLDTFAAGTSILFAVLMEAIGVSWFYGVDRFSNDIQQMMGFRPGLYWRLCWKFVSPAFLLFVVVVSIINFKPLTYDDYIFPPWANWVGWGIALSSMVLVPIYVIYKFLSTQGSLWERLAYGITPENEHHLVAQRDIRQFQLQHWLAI

[9] = biological target: Neurotensin receptor type 1 (Homo sapiens) (UniProt P30989); assay: Displacement of [125I]Tyr3-neurotensin from human recombinant neurotensin receptor type1 at 10 uM measured after 60 mins by scintillation counter method relative to control
Chain of Neurotensin receptor type 1 (Homo sapiens) (P30989 whole entry): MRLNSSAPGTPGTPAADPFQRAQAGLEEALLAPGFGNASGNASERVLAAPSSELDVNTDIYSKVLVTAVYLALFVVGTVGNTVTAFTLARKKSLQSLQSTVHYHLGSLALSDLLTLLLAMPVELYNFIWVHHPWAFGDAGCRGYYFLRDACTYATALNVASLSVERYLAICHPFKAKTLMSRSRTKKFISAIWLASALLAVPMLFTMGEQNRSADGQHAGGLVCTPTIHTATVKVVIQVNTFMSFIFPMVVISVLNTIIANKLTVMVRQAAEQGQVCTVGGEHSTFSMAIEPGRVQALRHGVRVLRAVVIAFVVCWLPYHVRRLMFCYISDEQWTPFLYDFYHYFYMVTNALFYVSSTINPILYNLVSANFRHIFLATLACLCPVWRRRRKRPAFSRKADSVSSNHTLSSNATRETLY

[10] = biological target: Sodium-dependent dopamine transporter (Homo sapiens) (UniProt Q01959); assay: Displacement of [3H] BTCP from human recombinant dopamine […] at 10 uM measured after 120 mins by scintillation counter method relative to control
[11] = biological target: Beta-1 adrenergic receptor (Homo sapiens) (UniProt P08588); assay: Displacement of [3H] (-)CGP 12177 from human recombinant beta1 adreno receptor at 10 uM measured after 60 mins by scintillation counter method relative to control
[12] = biological target: 5-hydroxytryptamine receptor 2C (Homo sapiens, UniProt P28335); assay: Displacement of [3H] mesulergine from human recombinant 5-HT2C receptor measured after 120 mins by scintillation counter method
Chain of 5-hydroxytryptamine receptor 2C (P28335 whole entry): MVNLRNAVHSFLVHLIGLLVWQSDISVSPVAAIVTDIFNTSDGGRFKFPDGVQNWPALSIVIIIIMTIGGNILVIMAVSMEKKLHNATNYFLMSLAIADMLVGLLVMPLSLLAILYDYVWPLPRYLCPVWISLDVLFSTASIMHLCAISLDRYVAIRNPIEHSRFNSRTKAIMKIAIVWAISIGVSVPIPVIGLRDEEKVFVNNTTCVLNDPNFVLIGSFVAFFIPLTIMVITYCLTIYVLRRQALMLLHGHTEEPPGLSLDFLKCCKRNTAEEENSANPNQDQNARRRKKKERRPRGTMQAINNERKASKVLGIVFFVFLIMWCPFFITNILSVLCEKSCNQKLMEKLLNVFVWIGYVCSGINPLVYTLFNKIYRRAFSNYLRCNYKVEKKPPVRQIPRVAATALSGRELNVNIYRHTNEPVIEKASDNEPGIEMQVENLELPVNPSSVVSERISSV

[13] = biological target: Mu-type opioid receptor (Homo sapiens) (UniProt P35372); assay: Displacement of [3H] DAMGO from human recombinant mu opioid receptor at 10 uM measured after 120 mins by scintillation counter method relative to control
Chain of Mu-type opioid receptor (Homo sapiens) (P35372 whole entry): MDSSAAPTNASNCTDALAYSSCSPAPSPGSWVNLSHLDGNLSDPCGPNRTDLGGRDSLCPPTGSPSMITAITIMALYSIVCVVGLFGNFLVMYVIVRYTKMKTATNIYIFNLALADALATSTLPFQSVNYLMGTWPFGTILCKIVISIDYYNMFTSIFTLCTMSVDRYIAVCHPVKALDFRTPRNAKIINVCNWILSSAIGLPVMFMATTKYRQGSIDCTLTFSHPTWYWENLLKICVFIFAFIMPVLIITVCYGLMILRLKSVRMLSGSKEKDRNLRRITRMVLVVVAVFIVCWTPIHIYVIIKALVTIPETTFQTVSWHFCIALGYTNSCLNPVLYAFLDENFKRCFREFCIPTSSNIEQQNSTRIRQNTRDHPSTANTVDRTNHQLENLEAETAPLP

[14] = biological target: C-C chemokine receptor type 1 (Homo sapiens) (UniProt P32246); assay: Displacement of [125I]MIP1-alpha from human recombinant CCR1 receptor at 10 uM measured after 120 mins by scintillation counter method relative to control
Chain of C-C chemokine receptor type 1 (Homo sapiens) (P32246 whole entry): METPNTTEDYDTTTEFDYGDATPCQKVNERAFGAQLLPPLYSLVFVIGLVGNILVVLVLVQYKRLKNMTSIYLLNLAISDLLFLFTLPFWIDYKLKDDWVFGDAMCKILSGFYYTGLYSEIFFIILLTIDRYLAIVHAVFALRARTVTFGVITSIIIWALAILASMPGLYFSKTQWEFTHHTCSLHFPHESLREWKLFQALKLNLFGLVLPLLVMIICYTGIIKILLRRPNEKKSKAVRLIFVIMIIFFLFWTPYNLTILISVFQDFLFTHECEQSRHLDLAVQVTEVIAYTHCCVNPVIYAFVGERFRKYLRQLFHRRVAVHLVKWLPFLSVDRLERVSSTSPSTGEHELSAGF

[15] = biological target: GABA-A receptor; anion channel (Rattus norvegicus) (UniProt O09028+P15431+P18506+P18508+P19969+P20236+P23574+P23576+P28471+P28473+P30191+P62813+P63079+P63138+Q91ZM7+Q9ES14); assay: Displacement of [3H]flunitrazepam from rat GABAA ion channel at 10 uM measured after 120 mins by scintillation counter method relative to control; type: protein-complex assay
[16] = biological target: Neuropeptide Y receptor type 2 (Homo sapiens) (UniProt P49146); assay: Displacement of [125I] peptide YY from human neuropeptide Y2 receptor at 10 uM measured after 60 mins by scintillation counter method relative to control
[17] = biological target: C-X-C chemokine receptor type 2 (Homo sapiens) (UniProt P25025); assay: Displacement of [125I]IL-8 from human recombinant CXCR2 receptor at 10 uM measured after 60 mins by scintillation counter method relative to control
Chain of C-X-C chemokine receptor type 2 (Homo sapiens) (P25025 whole entry): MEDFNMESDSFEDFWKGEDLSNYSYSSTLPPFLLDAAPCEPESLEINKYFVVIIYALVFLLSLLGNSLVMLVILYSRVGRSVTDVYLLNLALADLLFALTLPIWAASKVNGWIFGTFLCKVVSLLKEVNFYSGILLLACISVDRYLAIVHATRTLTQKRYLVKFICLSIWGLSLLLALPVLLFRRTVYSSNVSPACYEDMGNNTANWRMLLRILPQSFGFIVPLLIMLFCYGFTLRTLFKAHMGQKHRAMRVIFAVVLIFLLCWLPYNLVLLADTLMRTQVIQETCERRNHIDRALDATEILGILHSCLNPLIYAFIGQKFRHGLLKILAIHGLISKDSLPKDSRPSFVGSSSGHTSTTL

[18] = biological target: Nociceptin receptor (Homo sapiens) (UniProt P41146); assay: Displacement of [3H]nociceptin from human recombinant ORL1 at 10 uM measured after 60 mins by scintillation counter method relative to control
[19] = biological target: 5-hydroxytryptamine receptor 1B (Homo sapiens) (UniProt P28222); assay: Displacement of [3H] GR125743 from human recombinant 5-HT1B receptor at 10 uM measured after 60 mins by scintillation counter method relative to control
[20] = biological target: Adenosine receptor A2a (Homo sapiens) (UniProt P29274); assay: Displacement of [3H]CGS 21680 from human recombinant A2A receptor at 10 uM measured after 120 mins by scintillation counter method relative to control
Chain of Adenosine receptor A2a (Homo sapiens) (P29274 whole entry): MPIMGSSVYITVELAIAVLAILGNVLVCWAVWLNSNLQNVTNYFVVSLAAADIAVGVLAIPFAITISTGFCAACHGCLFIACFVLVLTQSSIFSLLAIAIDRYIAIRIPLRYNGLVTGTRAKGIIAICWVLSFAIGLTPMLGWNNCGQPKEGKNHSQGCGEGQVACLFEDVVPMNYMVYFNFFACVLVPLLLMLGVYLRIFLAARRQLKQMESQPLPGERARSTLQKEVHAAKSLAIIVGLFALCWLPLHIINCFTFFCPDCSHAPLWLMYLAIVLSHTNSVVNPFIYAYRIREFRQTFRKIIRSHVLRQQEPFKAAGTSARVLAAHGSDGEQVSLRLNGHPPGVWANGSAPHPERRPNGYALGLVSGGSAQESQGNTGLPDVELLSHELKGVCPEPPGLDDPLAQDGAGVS

Substance-K receptor = biological target: T1, Substance-K receptor (Homo sapiens, UniProt P21452); assay: Displacement of [125I]NKA from human recombinant NK2 receptor measured after 60 mins by scintillation counter method
T1 sequence (P21452 whole entry): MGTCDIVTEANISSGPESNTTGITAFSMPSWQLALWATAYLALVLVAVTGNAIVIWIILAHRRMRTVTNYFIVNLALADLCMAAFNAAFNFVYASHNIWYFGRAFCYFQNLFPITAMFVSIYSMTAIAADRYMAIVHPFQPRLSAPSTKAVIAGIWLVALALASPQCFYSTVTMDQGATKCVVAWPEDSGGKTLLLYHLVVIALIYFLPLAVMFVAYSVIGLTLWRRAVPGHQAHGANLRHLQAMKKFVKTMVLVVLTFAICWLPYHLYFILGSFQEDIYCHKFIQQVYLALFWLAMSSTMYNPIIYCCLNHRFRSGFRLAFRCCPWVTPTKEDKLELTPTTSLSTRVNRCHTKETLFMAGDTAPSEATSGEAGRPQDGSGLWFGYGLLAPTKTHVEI

[21] = biological target: D(1A) dopamine receptor (Homo sapiens) (UniProt P21728); assay: Displacement of [3H]SCH23390 from human recombinant D1 receptor at 10 uM measured after 60 mins by scintillation counter method relative to control
[22] = biological target: Histamine H2 receptor (Homo sapiens) (UniProt P25021); assay: Displacement of [125I]APT from human recombinant H2 receptor at 10 uM measured after 120 mins by scintillation counter method relative to control
Chain of Histamine H2 receptor (Homo sapiens) (P25021 whole entry): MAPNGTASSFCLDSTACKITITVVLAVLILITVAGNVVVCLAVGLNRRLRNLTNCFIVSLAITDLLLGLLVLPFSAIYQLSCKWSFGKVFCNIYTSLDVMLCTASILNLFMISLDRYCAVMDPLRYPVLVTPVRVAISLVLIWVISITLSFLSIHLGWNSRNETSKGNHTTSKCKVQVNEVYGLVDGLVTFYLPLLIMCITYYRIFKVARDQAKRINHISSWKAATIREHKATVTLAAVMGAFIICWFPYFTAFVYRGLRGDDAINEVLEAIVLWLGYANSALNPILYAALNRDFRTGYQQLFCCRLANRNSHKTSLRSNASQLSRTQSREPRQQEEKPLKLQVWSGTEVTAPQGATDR

[23] = biological target: Kappa-type opioid receptor (Homo sapiens) (UniProt P41145); assay: Displacement of [3H] U69593 from human kappa opioid receptor at 10 uM measured after 60 mins by scintillation counter method relative to control

CC(C)CCO[C@@H]1[C@H]2OC(C)(C)O[C@H]2[C@H]2Cn3cc(nn3)COCCCCCCN(CCc3ccc4ccccc4c3)CC[C@H]1O2
inhibition (Rattus norvegicus): 102% | inhibition [1]: 16.1% | inhibition [2]: 48.3% | inhibition [3]: 14% | IC50 [4]: 1600 nM | Ki [4]: 870 nM | inhibition at 2 h, 10 µM [5]: 90.5% | inhibition [6]: 57.7% | Activity [7]: 14.8% | inhibition [8]: 55.7% | Activity [9]: 15.7% | inhibition [10]: 64.1% | inhibition [11]: 10.6% | IC50 [12]: > 100000 nM | Ki [12]: > 100000 nM | inhibition [13]: 96.5% | inhibition [14]: 35.2% | Activity [15]: 5.1% | inhibition [16]: 10.8% | inhibition [17]: 20.9% | inhibition [18]: 9.9% | inhibition [19]: 19% | inhibition [20]: 14.6% | IC50 (Substance-K receptor): 260 nM | Ki (Substance-K receptor): 140 nM | inhibition [21]: 21.5% | inhibition [22]: 27.4% | inhibition [23]: 77.9%
